Source: ChEMBL document CHEMBL4831514, “Novel betulin dicarboxylic acid ester derivatives as potent antiviral agents: Design, synthesis, biological evaluation, structure-activity relationship and in-silico study” (Eur J Med Chem, 2021)
The source made the active and inactive calls. The calls are words filed in the database; no cut-off is given here.

Legend:
[1] = tested on: Vesicular stomatitis virus; assay: Antiviral activity against Vesicular stomatitis virus Indiana infected in A549 cells assessed as reduction in virus titer preincubated for 24 hrs followed by viral infection and measured after 72 hrs by microscopic analysis; type: functional, organism-based
Human adenovirus 5 [2] = assay: Antiviral activity against Human adenovirus 5 Adenoid 75 infected in A549 cells assessed as inhibition of viral adsorption at early stage of replication treated for 1 hr during viral infection followed by replacement with fresh medium and measured after 72 hrs by MTT assay; type: functional, organism-based
[3] = (§1) Selectivity index, ratio of CC50 for cytotoxicity against human A549 cells to EC50 for antiviral activity against Human herpesvirus 1 MacIntyre infected in A549 cells assessed as reduction in virus titer treated 1 hr post viral infection followed by replacement with fresh medium with compounds and measured after 72 hrs by MTT assay; type: toxicity, cell-based; conditions: read-out: Selectivity Index
Human alphaherpesvirus 1 [4] = assay: as §1, with “Potency” for “Selectivity”, “acyclovir EC50” for “CC50 for cytotoxicity against human A549 cells”, “to test compound” for “to”, “48” for “72”; type: functional
Human alphaherpesvirus 1 [5] = assay: Antiviral activity against Human herpesvirus-1 MacIntyre infected in A549 cells assessed as inhibition of viral adsorption at early stage of replication treated for 1 hr during viral infection followed by replacement with fresh medium and measured after 48 hrs by MTT assay; type: functional, organism-based
Human alphaherpesvirus 1 [6] = assay: Antiviral activity against Human herpesvirus 1 MacIntyre infected in A549 cells assessed as reduction in virus titer treated 1 hr post viral infection followed by replacement with fresh medium with compounds and measured after 48 hrs by MTT assay; type: functional, organism-based; conditions: Human alphaherpesvirus 1, MacIntyre
Human alphaherpesvirus 1 [7] = assay: Antiviral activity against Human herpesvirus 1 MacIntyre infected in A549 cells assessed as reduction in virus titer preincubated for 24 hrs followed by viral infection and measured after 72 hrs by microscopic analysis; type: functional, organism-based
[8] = (§2) Cytotoxicity against human A549 cells assessed as reduction in cell viability incubated for 48 hrs by MTT assay; type: cell-based; conditions: A549 cells
A549 = assay: as §2; type: cell-based; conditions: a549, 48 h
Human adenovirus 5 [9] = assay: Antiviral activity against Human adenovirus 5 Adenoid 75 infected in A549 cells assessed as reduction in virus titer preincubated for 24 hrs followed by viral infection and measured after 72 hrs by microscopic analysis; type: functional, organism-based
MDCK = assay: (§3) Cytotoxicity against MDCK cells assessed as reduction in cell viability incubated for 72 hrs by MTT assay; type: cell-based, Canis lupus familiaris; conditions: dog, mdck, 72 h
Enterovirus E = assay: Antiviral activity against Enterovirus E LCR-4 infected in A549 cells assessed as inhibition of viral adsorption at early stage of replication treated for 1 hr during viral infection followed by replacement with fresh medium and measured after 72 hrs by MTT assay; type: functional, organism-based
[10] = as §3; type: cell-based, Canis lupus familiaris; conditions: dog, MDCK cells
[11] = Selectivity index, ratio of CC50 for cytotoxicity against human A549 cells to EC50 for antiviral activity against Enterovirus E LCR-4 infected in A549 cells; type: toxicity, cell-based; conditions: read-out: Selectivity Index

Row | SMILES | Activity [1] | Activity (Human adenovirus 5 [2]) | selectivity ratio at 72 h [3] | Ratio EC50 (Human alphaherpesvirus 1 [4]) | Activity (Human alphaherpesvirus 1 [5]) | EC50 (Human alphaherpesvirus 1 [6]) [µM] | Activity (Human alphaherpesvirus 1 [7]) | CC50 at 48 h [8] [µM] | CC20 (A549) [µM] | Activity (Human adenovirus 5 [9]) | CC20 (MDCK) [µM] | Activity (Enterovirus E) | CC50 at 72 h [10] [µM] | selectivity ratio [11]
1 | C=C(C)[C@@H]1CC[C@]2(COC(=O)/C=C(\C)C(=O)N3CCCCC3)CC[C@]3(C)[C@H](CC[C@@H]4[C@@]5(C)CC[C@H](O)C(C)(C)[C@@H]5CC[C@]43C)[C@@H]12 | inactive | inactive | 4 | 3 | inactive | 17.2 | inactive | 68.7 | 34.34 | inactive | 4.26 | inactive |  | 
2 | C=C(C)[C@@H]1CC[C@]2(COC(=O)CCCCCCCCCC(=O)N3CCOCC3)CC[C@]3(C)[C@H](CC[C@@H]4[C@@]5(C)CC[C@H](O)C(C)(C)[C@@H]5CC[C@]43C)[C@@H]12 | inactive | inactive | 4.7 | 3 | inactive | 34.8 | inactive | 164 | 34.77 | inactive | 139.08 | inactive |  | 
3 | C=C(C)[C@@H]1CC[C@]2(COC(=O)c3ccccc3C(=O)N3CCOCC3)CC[C@]3(C)[C@H](CC[C@@H]4[C@@]5(C)CC[C@H](O)C(C)(C)[C@@H]5CC[C@]43C)[C@@H]12 | inactive | inactive | 4 | 3 | inactive | 35.9 | inactive | 144 | 35.87 | inactive | 143.47 | inactive |  | 
4 | C=C(C)[C@@H]1CC[C@]2(COC(=O)c3ccccc3C(=O)N3CCSCC3)CC[C@]3(C)[C@H](CC[C@@H]4[C@@]5(C)CC[C@H](O)C(C)(C)[C@@H]5CC[C@]43C)[C@@H]12 | inactive | inactive | 11.8 | 3 | inactive | 29.6 | inactive | 350 | 58.9 | inactive | 7.3 | inactive |  | 
5 | C#CC1(NC(=O)/C(C)=C/C(=O)OC[C@]23CC[C@@H](C(=C)C)[C@@H]2[C@H]2CC[C@@H]4[C@@]5(C)CC[C@H](O)C(C)(C)[C@@H]5CC[C@@]4(C)[C@]2(C)CC3)CCCCC1 | inactive | inactive |  |  | inactive |  | inactive |  | 54.47 | inactive | 54.47 | inactive | 54.5 | 
6 | C=C(C)[C@@H]1CC[C@]2(COC(=O)CCCC(=O)N3CCCCC3)CC[C@]3(C)[C@H](CC[C@@H]4[C@@]5(C)CC[C@H](O)C(C)(C)[C@@H]5CC[C@]43C)[C@@H]12 | inactive | inactive |  | 3 | inactive |  | inactive |  | 17.12 | inactive | 4.25 | inactive |  | 
7 | C=C(C)[C@@H]1CC[C@]2(COC(=O)CCCC(=O)N3CCOCC3)CC[C@]3(C)[C@H](CC[C@@H]4[C@@]5(C)CC[C@H](O)C(C)(C)[C@@H]5CC[C@]43C)[C@@H]12 | inactive | inactive | 8 | 3 | inactive | 18.9 | inactive | 151 | 18.85 | inactive | 18.85 | inactive |  | 
8 | Nc1nc2c(ncn2COCCO)c(=O)[nH]1 [ACYCLOVIR] |  | inactive | 14 |  | inactive | 111 |  | 1560 | 196.08 |  |  | inactive |  | 7
9 | C=C(C)[C@@H]1CC[C@]2(COC(=O)CCCC(=O)O)CC[C@]3(C)[C@H](CC[C@@H]4[C@@]5(C)CC[C@H](O)C(C)(C)[C@@H]5CC[C@]43C)[C@@H]12 | inactive | inactive | 3.6 | 3 | inactive | 22.4 | inactive | 80.8 | 22.44 | inactive | 11.22 | inactive |  | 
